Laboratory results as given in paper PMC9981206 (Cancer Research Communications, 2022).

Legend:
Assay type in all cases: cell-based
WNT/β-catenin signaling = test: luciferase-based WNT/β-catenin signaling reporter assay in HEK293 cells; conditions: Homo sapiens, HEK293, read-out: WNT reporter IC50
Method: (§1) The cell lines where obtained from ATCC or the Japanese Collection of Research Bioresources (JCRB) in 2014 and culturing was performed as described previously ([7]). The cell cultures were kept below 20 passages (∼10 weeks) and routinely monitored (upon thawing and monthly) for Mycoplasma infections with MycoAlert Mycoplasma Detection Kit (Lonza). All cell lines were authenticated by short tandem repeat profiling to confirm their identity (Eurofins). TNKS1/2 and PARP1 biochemical assays ([27, 32]), luciferase-based WNT/β-catenin signaling pathway reporter assay ([22, 27, 32]), anti-proliferative assays, and NCI-60 tumor cell line panel screen ([7]), immunoblot analyses ([7, 32, 39]), RNA isolation, and real-time qRT-PCR ([7, 27, 39, 40]) were performed as previously described.

[1] = tested on: COLO 320DM colon carcinoma cells; test: MTS colorimetric cell growth assay, COLO 320DM; conditions: Homo sapiens, 120 h, read-out: COLO320DM GI50
Source text: as §1, with “The” for “The cell lines where obtained from ATCC or the Japanese Collection of Research Bioresources (JCRB) in 2014 and culturing was performed as described previously ([7]). The”
(§2) B, IC50 values for inhibition of TNKS1, TNKS2, and PARP1 (biochemical assays) and luciferase-based WNT/β-catenin signaling reporter assay in HEK293 cells (WNT reporter). […] Mean ± SD values from a minimum of three independent experiments are shown. For B and C, numbers in superscript indicate data from reference 22, 27, 31, and 32. […] C, MTS colorimetric cell growth assay for various concentrations of tankyrase inhibitors in treated COLO 320DM and RKO colon cancer cells. […] Data from one representative experiment of more than three repeated assays, each with six replicates, are shown.

[2] = tested on: RKO colon carcinoma cells; test: MTS colorimetric cell growth assay, RKO; conditions: Homo sapiens, 120 h, read-out: RKO GI50
Source text: as §1, with “The” for “The cell lines where obtained from ATCC or the Japanese Collection of Research Bioresources (JCRB) in 2014 and culturing was performed as described previously ([7]). The”
as §2

Cc1cc(N2C[C@@H](C)N[C@@H](C)C2)ncc1-c1ccc(-c2nc3c(ccn3C)c(=O)[nH]2)cc1 [AZ6102]
IC50 (WNT/β-catenin signaling): 16 ± 4.5 nM | GI50 [1]: 50 nM | GI50 [2]: 6700 nM

Oc1nc(-c2ccc(C(F)(F)F)cc2)nc2c1CSCC2 [XAV939]
IC50 (WNT/β-catenin signaling): 220 ± 21 nM | GI50 [1]: > 10000 nM | GI50 [2]: 9500 nM
